Test results as given in ChEMBL document CHEMBL3758167, “4H-Thieno[3,2-c]chromene based inhibitors of Notum Pectinacetylesterase” (Bioorg Med Chem Lett, 2016).

What was measured:
in vivo [1] = conditions: mouse, po, 10 mg/kg
in vivo [2] = conditions: mouse, po, 10 mg/kg; remark: listed apart in the source
in vivo [3] = conditions: mouse, iv, 1 mg/kg
in vivo [4] = conditions: mouse, iv, 1 mg/kg; remark: listed apart in the source
in vivo [5] = conditions: mouse, po, 10 mg/kg; remark: listed apart in the source

Cmax (in vivo [1]): 64 µM
AUC (in vivo [2]): 158 µM·h
clearance (in vivo [3]): 2.4 mL/min/kg
Vd (in vivo [4]): 0.57 L/kg
bioavailability (in vivo [5]): 52%
Compound: O=C(O)c1cc2c(s1)-c1ccccc1CC2
